Results from patent publication US20090291462A1, “Detection or Quantification of Aggrecan and its Fragments” (Immunodiagnostic Systems Nordic A/S, priority 2005, published 2009).

B1: oncostatin M (protein, UniProt P13725 26-221, looked up)
Oncostatin-M: AAIGSCSKEYRVLLGQLQKQTDLMQDTSRLLDPYIRIQGLDVPKLREHCRERPGAFPSEETLRGLGRRGFLQTLNATLGCVLHRLADLEQRLPKAQDLERSGLNIEDLEKLQMARPNILGLRNNIYCMAQLLDNSDTAEPTKAGRGASQPPTPTPASDAFQRKLEGCRFLHGYHRFMHSVGRVFSKWGESPNRSRR
notes: cytokine oncostatin M used to stimulate cartilage explants

Tests used:
Format in all cases: cell-based
[1] = tested on: Bovine articular cartilage explants; test: G2 release into supernatants of bovine articular cartilage explants (F78 sandwich assay); conditions: FIG. 5; for release of G2 on cytokine stimulation: OSM and TNF-α together, decreases after day 5, background after day 12
Protocol: A sandwich assay was developed using monoclonal antibodies as described above. Streptavidin plates were incubated for 1 hour, 300 RPM, 20° C. with 100 μl 600 ng/ml biotinylated F78 monoclonal antibody against the G2 domain of aggrecan.
After incubating the plates for 1 hour, plates were washed 5 times with washing buffer (0.15 mol/l NaCl, 0.05% (v/v) Tween 20). Subsequently 100 μl standards (purified bovine aggrecan 0.05 ng/ml-10 ng/ml, or pre-diluted explant supernatants in PBS-BTB were added, and the plates were incubated for 1 hour, 300 RPM, 20° C. After the incubation period, the plates were washed 5 times as described previously, and 500 ng/ml horseradish Peroxidase (POD)-labelled F78 antibody was added. After incubating for 1 hour, 300 RPM, 20° C., the plate was washed 5 times, and 100 μl of TMB substrate was added, and the plate was incubated for 15 minutes, 300 RPM, 20° C. in the dark before 150 μl 0.18 M H2SO4 was added. The absorbance was measured immediately at 450 nm.
(§1) The G2 and the ^342FFGVG-G2 test described above were evaluated using conditioned medium from cartilage explants. Bovine articular cartilage was obtained from heifer stifle joints. Pieces of cartilage (16±4 mg) were placed in 96 well plates and incubated at 37° C. with 5% CO2 and shaking (50 rpm). Serum-free D-MEM medium with or without the cytokines oncostatin M and tumour necrosis factor α (TNFα) or the MMP inhibitor GM6001 was used. As negative control, cartilage was placed in chryo-tubes, frozen in liquid N2, and thawed at 37° C. in water-bath for three repeated freeze-thaw cycles. The explants culture medium was replaced every 3rd day, and supernatants were stored at −20° C. until further analysis.

[2] = tested on: Bovine articular cartilage explants; test: ^342FFGVG-G2 release into supernatants of bovine articular cartilage explants (AF-28/F78 sandwich assay); conditions: FIG. 5; for release of ^342FFGVG-G2 on cytokine stimulation: OSM and TNF-α together, after day 12
Protocol: Streptavidin plates were incubated for 1 hour, 300 RPM, 20° C. with 100 μl 1500 ng/ml biotinylated AF-28 monoclonal antibody against the epitope ^342FFGVG-G2. Antibody dilutions were made in PBS-BTB buffer. After incubating the plates for 1 hour, plates were washed 5 times with washing buffer (0.15 mol/l NaCl, 0.05% (v/v) Tween 20). Subsequently 50 μl standards (MMP-13 digested purified porcine aggrecan 47-3000 ng/ml or pre-diluted explant supernatants in PBS-BTB were added, and the plates were incubated for 1 hour, 300 RPM, 20° C. After the incubation period, the plates were washed 5 times as described previously, and 500 ng/ml horseradish Peroxidase (POD)-labelled F78 antibody was added. After incubating for 1 hour, 300 RPM, 20° C., the plates were washed 5 times, 100 μl of TMB substrate was added, and the plates were incubated for 15 minutes, 300 RPM, 20° C. in the dark before 150 μl 0.18 M H2SO4 was added. The absorbance was measured immediately after at 450 nm.
as §1

[3] = tested on: Bovine articular cartilage explants; test: CS846 release into supernatants of bovine articular cartilage explants (IBEX CS846 competitive ELISA kit); conditions: FIG. 6; for release of CS846 on cytokine stimulation: OSM and TNFα together
Protocol: as §1
The supernatants evaluated above was also measured for CS846 (IBEX CS846 competitive ELISA kit).

Molecule	release of G2 on addition of the MMP inhibitor ([1]; explants treated with OSM and TNF-α plus GM6001)	release of ^342FFGVG-G2 in the presence of the MMP inhibitor ([2]; explants treated with OSM and TNF-α concomitantly with GM6001)	CS846 release during inhibition of MMP activity ([3]; explants with GM6001)	release of G2 on cytokine stimulation [1]	release of ^342FFGVG-G2 on cytokine stimulation [2]	release of CS846 on cytokine stimulation [3]
CNC(=O)[C@H](Cc1c[nH]c2ccccc12)NC(=O)[C@@H](CC(=O)NO)CC(C)C [GM6001]	did not inhibit	completely abrogated	strong, initial elevation	–	–	–
tumour necrosis factor α [TNF-α]	–	–	–	initial elevation	stimulate an increase	do not stimulate release
B1	–	–	–	initial elevation	stimulate an increase	do not stimulate release
